US20240317722A1, “HETEROARYL-3-PIPERIDINEDIONE COMPOUND AND USE THEREOF” (Medshine Discovery Inc., priority 2021, published 2024)

Tests used:
NCI-H526 = assay: Anti-proliferative effect in NCI-H526 (CellTiter-Glo); format: cell-based; details: NCI-H526, 3 days; for IC50: Homo sapiens, 72 h
Procedure: This assay studied the inhibitory effect of the compounds on cell proliferation by detecting the effect of the test compounds on the in vitro activity of tumor cells NCI-H1581, DMS114, NCI-H69 and NCI-H526.
The tumor cell lines were cultured in an incubator at 37° C., 5% CO2 or 0% CO2 according to the above culture conditions. The cells were periodically passaged, and cells in logarithmic growth phase were taken for plating. • 2. Cell plating • (1). Cells were stained with trypan blue and viable cells were counted.
• (3). 100 μL of cell suspension was added to each well of the culture plate, and culture medium without cells was added to the blank control well. • (4). The plate was incubated overnight in an incubator at 37° C., 5% CO2 or 0% CO2, and 100% relative humidity. • 3. Preparation of compound stock solution
Preparation of 1000× compound stock solution: Compound was dissolved in DMSO to 10 mM, then a portion was taken out and diluted to 1000 times the highest acting concentration. The diluted stock solution was dispensed for later use. • 4. Preparation of 5× compound working solution and treatment of cells with compounds. The working solutions were prepared freshly at each time for use. • (1). Preparation of 5× compound working solution: 119.4 μL of cell culture medium was added to a 96-well plate with a V-shaped bottom. 96 μL of DMSO-cell culture medium mix solution (with DMSO content of 0.5%) was added to subsequent gradient wells. 0.6 μL of the compound from the 1000× compound stock solution was added to the cell culture medium in the 96-well plate, and mixed to uniform with a pipette. A pipette was used to draw 24 μL of the compound-cell culture medium mixture into subsequent wells, and the mixture was mixed well by a pipette each time. • (2). Dosing: 25 μL of 5× compound working solution was added to the cell culture plate. 25 μL of DMSO-cell culture medium mix solution (with DMSO content of 0.5%) was added to the vehicle control and blank control. • (3). The 96-well cell plate was placed back into the incubator and cultured for 3 days. • 5. CellTiter-Glo luminescence cell viability detection
The following steps were performed according to the instruction of Promega CellTiter-Glo luminescence cell viability detection kit (Promega-G7573). • (1). The CellTiter-Glo buffer was thawed and allowed to stand to reach room temperature; • (2). CellTiter-Glo substrate was allowed to stand to reach room temperature; • (3). 10 mL of CellTiter-Glo buffer was added to CellTiter-Glo substrate in a bottle to dissolve the substrate to formulate CellTiter-Glo working solution; • (4). […] The culture plates were left at room temperature for 10 minutes to stabilize the luminescence signal; • (9). The luminous signal was detected on the 2104 En Vision plate reader. • 6. […]

[1] = tested on: human triple-negative breast cancer MDA-MB-231 cells; assay: In vivo pharmacodynamic study, subcutaneous xenograft tumor Balb/c nude mouse model of MDA-MB-231 cells; parameters: species or system Balb/c nude mice; details: for Tumor volume (Day 0): Day 0 (grouping); for in vivo efficacy on the xenograft tumor model (in words): MDA-MB-231 xenograft, oral
Procedure: Cell culture: Human triple-negative breast cancer MDA-MB-231 cells (ATCC-HTB-26) were cultured in monolayer in vitro. The culture conditions were RPMI-1640 medium with 10% fetal bovine serum in an incubator at 37° C. and 5% CO2. Conventional digestion with trypsin-EDTA was performed once every two days for passage. When the cell saturation was 80%-90% and the number met the requirement, the cells were collected, counted, and inoculated.
Assay animals: Balb/c nude mice, female, 6 weeks old upon arrival, purchased from Shanghai Bikai Experimental Animal Co., Ltd.
Cell inoculation: 0.2 mL (5×10^6 cells) of MDA-MB-231 cells (with matrigel, v/v 1:1) were subcutaneously inoculated into the right back of each mouse. The grouping for administration was started when the average tumor volume reached 110 mm^3. One dosing cycle was seven days, with administration once a day and an interval of 24 hours. The test compound was administered orally for a total of four cycles. The dosages of test compound WX005 were 10 mg/kg, 30 mg/kg and 100 mg/kg respectively, and the dosage of WX013 was 30 mg/kg respectively. Tumor diameter was measured twice a week with a vernier caliper. Tumor volume was calculated by the following formula: V=0.5a×b^2, where a and b are the long and short diameters of the tumor, respectively. The anti-tumor efficacy of compounds was evaluated by TGI (%) or relative tumor proliferation rate T/C (%). Relative tumor proliferation rate T/C (%)=TRTV/CRTV×100% (TRTV: average RTV of the treatment group; CRTV: average RTV of the negative control group). The relative tumor volume (RTV) was calculated based on the results of tumor measurement by the calculation formula: RTV=Vt/V0, where V0 is the tumor volume measured at grouping for administration (i.e., D0), and Vt is the tumor volume at a certain measurement, and TRTV and CRTV are taken on the same day.

SMILES	IC50 (NCI-H526) [nM]	Max. IR (NCI-H526) [%]	Tumor volume (Day 0) ([1]; 30 mg/kg orally once a day) [mm^3]	Relative tumor proliferation rate T/C (Day 27) ([1]; 30 mg/kg orally once a day) [%]	TGI (Day 27) ([1]; 30 mg/kg orally once a day) [%]	Tumor volume (Day 27) ([1]; 30 mg/kg orally once a day) [mm^3]	in vivo efficacy on the xenograft tumor model (in words) [1]	Tumor volume (Day 0) ([1]; 10 mg/kg orally once a day) [mm^3]	Relative tumor proliferation rate T/C (Day 27) ([1]; 10 mg/kg orally once a day) [%]	TGI (Day 27) ([1]; 10 mg/kg orally once a day) [%]	Tumor volume (Day 27) ([1]; 10 mg/kg orally once a day) [mm^3]
COCCOc1cc(NC(=O)NCc2ccc3c(C4CCC(=O)NC4=O)noc3c2)cc(Cl)c1C (centres unmarked) [WX013]	0.1	99.37	108.69	0	114.97	0	significant tumor shrinkage effect				
COCCOc1cc(NC(=O)NCc2ccc3c(C4CCC(=O)NC4=O)coc3c2)cc(Cl)c1C (centres unmarked) [WX005]	0.5	99.17					significant tumor shrinkage effect	108.29	0	114.91	0
